# Data as given in PubChem BioAssay (NCI).
#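 Values below derive from 48-hour exposures of cells grown in 96-well plates, with endpoints linearly interpolated between the two concentrations bracketing the appropriate inhibition level. Here, GI50 denotes the concentration required for 50% inhibition of growth. TGI marks complete inhibition of growth.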
# What was measured:
# Test in all cases: inhibition of tumour cell growth, NCI panel, 48 h
# NCI-H226 lung = test system: NCI-H226 lung
# HCC-2998 colon = test system: HCC-2998 colon
# HCT-15 colon = test system: HCT-15 colon
# HL-60(TB) leukemia = test system: HL-60(TB) leukemia
# M14 melanoma = test system: M14 melanoma
# SNB-19 CNS = test system: SNB-19 CNS
# HOP-92 NSCLC = test system: HOP-92 NSCLC
# SN12C renal = test system: SN12C renal
# HS 578T breast = test system: HS 578T breast
# PC-3 prostate = test system: PC-3 prostate
# SW-620 colon = test system: SW-620 colon
# IGROV1 ovarian = test system: IGROV1 ovarian
# NCI-H522 lung = test system: NCI-H522 lung
# SF-539 CNS = test system: SF-539 CNS
# K-562 leukemia = test system: K-562 leukemia
# HT29 colon = test system: HT29 colon
# UO-31 renal = test system: UO-31 renal
# NCI-H23 lung = test system: NCI-H23 lung
# SF-268 CNS = test system: SF-268 CNS
# TK-10 renal = test system: TK-10 renal
# OVCAR-5 ovarian = test system: OVCAR-5 ovarian
# DU-145 prostate = test system: DU-145 prostate
# MCF7 breast = test system: MCF7 breast
# SF-295 CNS = test system: SF-295 CNS
# ACHN renal = test system: ACHN renal
# SK-MEL-5 melanoma = test system: SK-MEL-5 melanoma
# BT-549 breast = test system: BT-549 breast
# COLO 205 colon = test system: COLO 205 colon
# OVCAR-8 ovarian = test system: OVCAR-8 ovarian
# T-47D breast = test system: T-47D breast
# SK-MEL-28 melanoma = test system: SK-MEL-28 melanoma
# SK-MEL-2 melanoma = test system: SK-MEL-2 melanoma
# HOP-62 NSCLC = test system: HOP-62 NSCLC
# SK-OV-3 ovarian = test system: SK-OV-3 ovarian
# OVCAR-3 ovarian = test system: OVCAR-3 ovarian
# CAKI-1 renal = test system: CAKI-1 renal
# OVCAR-4 ovarian = test system: OVCAR-4 ovarian
# LOX IMVI melanoma = test system: LOX IMVI melanoma
# KM12 colon = test system: KM12 colon
# NCI/ADR-RES ovarian = test system: NCI/ADR-RES ovarian
# A498 renal = test system: A498 renal
# MDA-MB-231 breast = test system: MDA-MB-231 breast
# MDA-MB-435 = test system: MDA-MB-435
smiles,measurement,setting,value
Cc1[nH]c(/C=C2\C(=O)Nc3ccc(S(=O)(=O)Cc4c(Cl)cccc4Cl)cc32)c(C)c1C(=O)N1CCC[C@@H]1CN1CCCC1,GI50,NCI-H226 lung,15.1 µM
same,TGI,NCI-H226 lung,54.8 µM
same,GI50,HCC-2998 colon,1.95 µM
same,TGI,HCC-2998 colon,3.6 µM
same,GI50,HCT-15 colon,1.71 µM
same,TGI,HCT-15 colon,3.51 µM
same,GI50,HL-60(TB) leukemia,1.97 µM
same,TGI,HL-60(TB) leukemia,5.49 µM
same,GI50,M14 melanoma,1.5 µM
same,TGI,M14 melanoma,2.92 µM
same,GI50,SNB-19 CNS,2.41 µM
same,TGI,SNB-19 CNS,6.74 µM
same,GI50,HOP-92 NSCLC,2.09 µM
same,TGI,HOP-92 NSCLC,> 44 µM
same,GI50,SN12C renal,1.24 µM
same,TGI,SN12C renal,2.57 µM
same,GI50,HS 578T breast,7.72 µM
same,TGI,HS 578T breast,43.9 µM
same,GI50,PC-3 prostate,1.73 µM
same,TGI,PC-3 prostate,> 21.5 µM
same,GI50,SW-620 colon,1.78 µM
same,TGI,SW-620 colon,3.29 µM
same,GI50,IGROV1 ovarian,3.09 µM
same,TGI,IGROV1 ovarian,7.98 µM
same,GI50,NCI-H522 lung,19.7 µM
same,TGI,NCI-H522 lung,47.7 µM
same,GI50,SF-539 CNS,1.51 µM
same,TGI,SF-539 CNS,2.89 µM
same,GI50,K-562 leukemia,1.63 µM
same,TGI,K-562 leukemia,> 100 µM
same,GI50,HT29 colon,1.62 µM
same,TGI,HT29 colon,3.07 µM
same,GI50,UO-31 renal,1.41 µM
same,TGI,UO-31 renal,3.07 µM
same,GI50,NCI-H23 lung,4.38 µM
same,TGI,NCI-H23 lung,12.3 µM
same,GI50,SF-268 CNS,1.6 µM
same,TGI,SF-268 CNS,4.03 µM
same,GI50,TK-10 renal,1.92 µM
same,TGI,TK-10 renal,3.85 µM
same,GI50,OVCAR-5 ovarian,1.95 µM
same,TGI,OVCAR-5 ovarian,3.72 µM
same,GI50,DU-145 prostate,1.85 µM
same,TGI,DU-145 prostate,3.39 µM
same,GI50,MCF7 breast,1.69 µM
same,TGI,MCF7 breast,3.64 µM
same,GI50,SF-295 CNS,1.19 µM
same,TGI,SF-295 CNS,2.57 µM
same,GI50,ACHN renal,1.63 µM
same,TGI,ACHN renal,3.07 µM
same,GI50,SK-MEL-5 melanoma,2.58 µM
same,TGI,SK-MEL-5 melanoma,15.8 µM
same,GI50,BT-549 breast,14.1 µM
same,TGI,BT-549 breast,83.1 µM
same,GI50,COLO 205 colon,9.15 µM
same,TGI,COLO 205 colon,22.6 µM
same,GI50,OVCAR-8 ovarian,1.88 µM
same,TGI,OVCAR-8 ovarian,4.37 µM
same,GI50,T-47D breast,12.2 µM
same,TGI,T-47D breast,35.9 µM
same,GI50,SK-MEL-28 melanoma,1.4 µM
same,TGI,SK-MEL-28 melanoma,2.75 µM
same,GI50,SK-MEL-2 melanoma,12.5 µM
same,TGI,SK-MEL-2 melanoma,53.1 µM
same,GI50,HOP-62 NSCLC,1.99 µM
same,TGI,HOP-62 NSCLC,4.55 µM
same,GI50,SK-OV-3 ovarian,22.4 µM
same,TGI,SK-OV-3 ovarian,59.1 µM
same,GI50,OVCAR-3 ovarian,16 µM
same,TGI,OVCAR-3 ovarian,47.4 µM
same,GI50,CAKI-1 renal,5.05 µM
same,TGI,CAKI-1 renal,13.6 µM
same,GI50,OVCAR-4 ovarian,26.1 µM
same,TGI,OVCAR-4 ovarian,70.7 µM
same,GI50,LOX IMVI melanoma,1.73 µM
same,TGI,LOX IMVI melanoma,3.22 µM
same,GI50,KM12 colon,0.138 µM
same,TGI,KM12 colon,4.77 µM
same,GI50,NCI/ADR-RES ovarian,2.96 µM
same,TGI,NCI/ADR-RES ovarian,> 24.4 µM
same,GI50,A498 renal,18.7 µM
same,TGI,A498 renal,52.8 µM
same,GI50,MDA-MB-231 breast,1.57 µM
same,TGI,MDA-MB-231 breast,3.16 µM
same,GI50,MDA-MB-435,0.865 µM
same,TGI,MDA-MB-435,2.2 µM
